In EPA's ToxRefDB 2:

Columns and labels:
[1] = system: rabbit; conditions: Prenatal developmental toxicity study, new zealand white, Oral, Gavage/Intubation, dose end: 28 GD
[2] = system: rat; conditions: Combined chronic toxicity/carcinogenicity, sprague dawley, Oral, Feed, dose end: 24 month, group: systemic
[3] = system: rat; conditions: Multigenerational reproductive toxicity study, sprague dawley, Oral, Feed, dose end: 2 generation
[4] = system: dog; conditions: Subchronic oral toxicity in nonrodent, beagle, Feed, dose end: 13 week, group: systemic, systemic / in life observation / body weight / body weight gain + systemic / in life observation / clinical signs / anemia + systemic / in …
[5] = system: dog; conditions: Chronic toxicity, beagle, Oral, Feed, dose end: 52 week, group: systemic
[6] = system: rat; conditions: Subchronic oral toxicity in rodents, sprague dawley, Feed, dose end: 90 day, group: systemic, systemic / in life observation / body weight / body weight + systemic / in life observation / body weight / body weight gain
[7] = system: mouse; conditions: Carcinogenicity, cd1, Oral, [Not Specified], dose end: 79 week, group: systemic
[8] = system: dog; conditions: Subchronic oral toxicity in nonrodent, beagle, Feed, dose end: 90 day, group: systemic
[9] = system: mouse; conditions: Subchronic oral toxicity in rodents, cd1, Feed, dose end: 13 week, group: systemic
[10] = system: rat; conditions: Subchronic oral toxicity in rodents, sprague dawley, Feed, dose end: 90 day, group: systemic
[11] = system: rat; conditions: Multigenerational reproductive toxicity study, sprague dawley, Oral, Feed, dose end: 2 generation; remark: listed apart in the source
[12] = system: rat; conditions: Combined chronic toxicity/carcinogenicity, sprague dawley, Oral, Feed, dose end: 24 month, group: systemic; remark: listed apart in the source
[13] = system: dog; conditions: Subchronic oral toxicity in nonrodent, beagle, Feed, dose end: 13 week, group: systemic
[14] = system: rat; conditions: Subchronic oral toxicity in rodents, Sprague-Dawley, Feed, dose end: 90 day, group: systemic, systemic / in life observation / body weight / body weight gain
[15] = system: dog; conditions: Subchronic oral toxicity in nonrodent, beagle, Capsule, dose end: 13 week, group: systemic
[16] = group: developmental, developmental / developmental malformation / bone / ossification sites + developmental / developmental malformation / lung / absent + …
[17] = group: maternal, reproductive / reproductive performance / premature delivery / premature delivery + systemic / in life observation / clinical signs / …
[18] = systemic / in life observation / body weight / body weight + systemic / in life observation / food consumption / food consumption + systemic…
[19] = systemic / organ weight / liver / relative to body weight + systemic / pathology microscopic / liver / infiltration cellular
[20] = group: offspring, developmental / developmental landmark / preputial separation / preputial separation + systemic / in life observation / body weight / …
[21] = group: parental, systemic / in life observation / body weight / body weight + systemic / in life observation / body weight / body weight gain + systemic / …
[22] = group: reproductive, reproductive / offspring survival early / dead fetuses / dead fetuses
[23] = systemic / clinical chemistry / alanine aminotransferase (alt/sgpt) / alanine aminotransferase (alt/sgpt)
[24] = systemic / hematology / anemia / anemia - nos + systemic / hematology / erythrocyte (rbc) count differential / erythrocyte (rbc) + systemic…
[25] = systemic / in life observation / body weight / body weight + systemic / in life observation / body weight / body weight gain + systemic / …
[26] = systemic / in life observation / body weight / body weight gain + systemic / in life observation / food consumption / food efficiency
[27] = systemic / in life observation / body weight / body weight gain + systemic / in life observation / food consumption / food efficiency + …
[28] = systemic / in life observation / body weight / body weight gain + systemic / in life observation / body weight / body weight + systemic / in…
[29] = systemic / in life observation / body weight / body weight + systemic / in life observation / body weight / body weight gain + systemic / in…
[30] = systemic / organ weight / heart / relative to body weight
[31] = group: offspring, systemic / in life observation / clinical signs / reduced body size
[32] = group: parental, systemic / in life observation / food consumption / food consumption
[33] = group: parental, systemic / in life observation / food consumption / food consumption + systemic / in life observation / body weight / body weight + systemic…
[34] = group: reproductive, reproductive / offspring survival early / litter size / litter size
[35] = systemic / in life observation / body weight / body weight gain + systemic / in life observation / food consumption / food consumption + …
[36] = systemic / in life observation / food consumption / food consumption + systemic / in life observation / body weight / body weight gain
[37] = systemic / clinical chemistry / gamma glutamyl transferase (ggt) / gamma glutamyl transferase (ggt) + systemic / in life observation / …

CN/C(=N\[N+](=O)[O-])NCc1cnc(Cl)s1 [Clothianidin]
LOAEL ([1]; group: developmental, developmental / developmental malformation / bone / ossification sites + developmental / developmental malformation / lung / absent): 75 mg/kg/day | LEL [1, 16]: 75 mg/kg/day | NEL [1, 16]: 25 mg/kg/day | NOAEL [1, 16]: 25 mg/kg/day | LEL [1, 17]: 75 mg/kg/day | LOAEL [1, 17]: 75 mg/kg/day | NEL [1, 17]: 25 mg/kg/day | NOAEL [1, 17]: 25 mg/kg/day | LOAEL [2, 18]: 97.8 mg/kg/day | NOAEL [2, 18]: 32.5 mg/kg/day | LEL [2, 19]: 9.7 mg/kg/day | NEL [2, 19]: < 9.7 mg/kg/day | LEL [3, 20]: 34.3 mg/kg/day | LOAEL [3, 20]: 34.3 mg/kg/day | NEL [3, 20]: 10.7 mg/kg/day | NOAEL [3, 20]: 10.7 mg/kg/day | LEL [3, 21]: 163 mg/kg/day | LOAEL [3, 21]: 163 mg/kg/day | NEL [3, 21]: 31.2 mg/kg/day | NOAEL [3, 21]: 31.2 mg/kg/day | LEL [3, 22]: 31.2 mg/kg/day | LOAEL [3, 22]: 31.2 mg/kg/day | NEL [3, 22]: 9.8 mg/kg/day | NOAEL [3, 22]: 9.8 mg/kg/day | LEL [4]: 40.9 mg/kg/day | LOAEL [4]: 40.9 mg/kg/day | NEL [4]: 19.3 mg/kg/day | NOAEL [4]: 19.3 mg/kg/day | LEL [5, 23]: 36.3 mg/kg/day | NEL [5, 23]: 16.6 mg/kg/day | LOAEL [5, 24]: 52.9 mg/kg/day | NOAEL [5, 24]: 40.1 mg/kg/day | LEL [6]: 202 mg/kg/day | LOAEL [6]: 202 mg/kg/day | NOAEL [6]: 27.9 mg/kg/day | LOAEL ([7]; systemic / in life observation / body weight / body weight + systemic / in life observation / body weight / body weight gain): 216 mg/kg/day | NOAEL [7, 25]: 65.1 mg/kg/day | LEL ([7]; systemic / in life observation / clinical signs / excessive or spontaneous vocalization): 171 mg/kg/day | NEL ([7]; systemic / in life observation / clinical signs / excessive or spontaneous vocalization + systemic / in life observation / body weight / …): 47.2 mg/kg/day

O=C(Nc1ccccc1)Nc1ccnc(Cl)c1 [Forchlorfenuron]
LOAEL [8, 26]: 173 mg/kg/day | NOAEL [8, 26]: < 173 mg/kg/day | LEL [8, 27]: 173 mg/kg/day | NEL [8, 27]: < 173 mg/kg/day | LOAEL ([9]; systemic / in life observation / body weight / body weight gain): 1290 mg/kg/day | LEL [9, 28]: 1290 mg/kg/day | NEL [9, 28]: 609 mg/kg/day | NOAEL [9, 28]: 609 mg/kg/day | LOAEL [10, 29]: 428 mg/kg/day | NOAEL [10, 29]: 84 mg/kg/day | LEL [10, 30]: 16 mg/kg/day | NEL [10, 30]: < 16 mg/kg/day | NOAEL ([11]; group: offspring, systemic / in life observation / body weight / offspring (pup) weight + developmental / offspring survival late / lactation index / …): 13 mg/kg/day | LOAEL ([11]; group: offspring, systemic / in life observation / body weight / offspring (pup) weight + systemic / in life observation / clinical signs / reduced body size): 168 mg/kg/day | LEL [11, 31]: 13 mg/kg/day | NEL [11, 31]: < 13 mg/kg/day | LEL [11, 32]: 144 mg/kg/day | LOAEL [11, 32]: 144 mg/kg/day | NEL [11, 33]: 11 mg/kg/day | NOAEL [11, 33]: 11 mg/kg/day | LEL [11, 34]: 829 mg/kg/day | LOAEL [11, 34]: 829 mg/kg/day | NEL [11, 34]: 168 mg/kg/day | NOAEL [11, 34]: 168 mg/kg/day | LOAEL [12, 25]: 93 mg/kg/day | NOAEL [12, 25]: 7 mg/kg/day | NEL ([12]; systemic / pathology microscopic / kidney / dilatation + systemic / organ weight / adrenal gland / absolute + systemic / organ weight / …): 518 mg/kg/day | LOAEL [13, 35]: 162 mg/kg/day | NOAEL [13, 35]: 16.8 mg/kg/day | LEL [13, 36]: 1.8 mg/kg/day | NEL [13, 36]: < 1.8 mg/kg/day

CCc1cccc(C)c1N(C(=O)CS(=O)(=O)O)C(C)COC (configuration not stated) [Metolachlor ESA]
LEL [14]: 1540 mg/kg/day | LOAEL [14]: > 1540 mg/kg/day | NEL [14]: 427 mg/kg/day | NOAEL [14]: ≥ 1540 mg/kg/day | LEL ([15]; systemic / clinical chemistry / gamma glutamyl transferase (ggt) / gamma glutamyl transferase (ggt) + systemic / clinical chemistry / …): 200 mg/kg/day | LOAEL [15, 37]: > 1000 mg/kg/day | NOAEL [15, 37]: ≥ 1000 mg/kg/day
